Laboratory results reported in patent US11732000B2, “Oxysterols and methods of use thereof” (Sage Therapeutics, Inc., priority 2015, dated 2023).

Target: T1, GlunN1/GluN2A glutamate receptors (Homo sapiens, UniProt Q05586+Q12879)
T1 construct: expressed in transfected cells
Assay: NMDA potentiation, whole-cell patch clamp of mammalian cells (IonWorks Barracuda, IWB)
Type: cell-based
Settings: 3 μM test article, HEK293 cells expressing human GRIN1/GRIN2A, co-application with EC20 L-glutamate and 30 μM glycine; for activation at 3 µM: read-out: GluN2A PCA IWB Ephys % potentiation at 3 μM
Procedure: NMDA potentiation was assessed using either whole cell patch clamp of mammalian cells which expressed NMDA receptors.
Whole-Cell Patch Clamp of Mammalian Cells (IONWORKS BARRACUDA® (IWB))
The whole-cell patch-clamp technique was used to investigate the effects of compounds GlunN1/GluN2A glutamate receptors expressed in mammalian cells.
HEK293 cells were transformed with adenovirus 5 DNA and transfected with cDNA encoding the human GRIN1/GRIN2A genes. Stable transfectants were selected using G418 and ZEOCIN™ (phleomycins)-resistance genes incorporated into the expression plasmid and selection pressure maintained with G418 and ZEOCIN™ (phleomycins) in the medium. Cells were cultured in Dulbecco's Modified Eagle Medium/Nutrient Mixture (D-MEM/F-12) supplemented with 10% fetal bovine serum, 100 μg/ml penicillin G sodium, 100 μg/ml streptomycin sulphate, 100 μg/ml Zeocin, 5 μg/ml blasticidin and 500 μg/ml G418.
Test article effects were evaluated in 8-point concentration-response format (4 replicate wells/concentration). All test and control solutions contained 0.3% DMSO and 0.01% KOLLIPHOR® (polyethoxylated castor oil) EL (C5135, Sigma). The test article formulations were loaded in a 384-well compound plate using an automated liquid handling system (SCICLONE® ALH3000, Caliper Life Sciences). The measurements were performed using IWB platform following this procedure:
Electrophysiological Procedures:
• a) Intracellular solution (mM): 50 mM CsCl, 90 mM CsF, 2 mM MgCl2, 5 mM EGTA, 10 mM HEPES. Adjust to pH 7.2 with CsOH. • b) Extracellular solution, HB-PS (composition in mM): NaCl, 137; KCl, 1.0; CaCl2), 5; HEPES, 10; Glucose, 10; pH adjusted to 7.4 with NaOH (refrigerated until use). • c) Holding potential: −70 mV, potential during agonist/PAM application: −40 mV. Recording Procedure: • a) Extracellular buffer will be loaded into the PPC plate wells (11 μL per well). Cell suspension will be pipetted into the wells (9 μL per well) of the PPC planar electrode. • b) Whole-cell recording configuration will be established via patch perforation with membrane currents recorded by on-board patch clamp amplifiers. • c) Two recordings (scans) will be performed. First, during pre-application of test article alone (duration of pre-application −5 min) and second, during test articles and agonist (EC20 L-glutamate and 30 μM glycine) co-application to detect positive modulatory effects of the test article.
Test Article Administration: The first pre-application will consist of the addition of 20 μL of 2× concentrated test article solution and, second, of 20 μL of 1× concentrated test article and agonist at 10 μL/s (2 second total application time).

T1 sequence (Q12879 23-1464, other chains not shown): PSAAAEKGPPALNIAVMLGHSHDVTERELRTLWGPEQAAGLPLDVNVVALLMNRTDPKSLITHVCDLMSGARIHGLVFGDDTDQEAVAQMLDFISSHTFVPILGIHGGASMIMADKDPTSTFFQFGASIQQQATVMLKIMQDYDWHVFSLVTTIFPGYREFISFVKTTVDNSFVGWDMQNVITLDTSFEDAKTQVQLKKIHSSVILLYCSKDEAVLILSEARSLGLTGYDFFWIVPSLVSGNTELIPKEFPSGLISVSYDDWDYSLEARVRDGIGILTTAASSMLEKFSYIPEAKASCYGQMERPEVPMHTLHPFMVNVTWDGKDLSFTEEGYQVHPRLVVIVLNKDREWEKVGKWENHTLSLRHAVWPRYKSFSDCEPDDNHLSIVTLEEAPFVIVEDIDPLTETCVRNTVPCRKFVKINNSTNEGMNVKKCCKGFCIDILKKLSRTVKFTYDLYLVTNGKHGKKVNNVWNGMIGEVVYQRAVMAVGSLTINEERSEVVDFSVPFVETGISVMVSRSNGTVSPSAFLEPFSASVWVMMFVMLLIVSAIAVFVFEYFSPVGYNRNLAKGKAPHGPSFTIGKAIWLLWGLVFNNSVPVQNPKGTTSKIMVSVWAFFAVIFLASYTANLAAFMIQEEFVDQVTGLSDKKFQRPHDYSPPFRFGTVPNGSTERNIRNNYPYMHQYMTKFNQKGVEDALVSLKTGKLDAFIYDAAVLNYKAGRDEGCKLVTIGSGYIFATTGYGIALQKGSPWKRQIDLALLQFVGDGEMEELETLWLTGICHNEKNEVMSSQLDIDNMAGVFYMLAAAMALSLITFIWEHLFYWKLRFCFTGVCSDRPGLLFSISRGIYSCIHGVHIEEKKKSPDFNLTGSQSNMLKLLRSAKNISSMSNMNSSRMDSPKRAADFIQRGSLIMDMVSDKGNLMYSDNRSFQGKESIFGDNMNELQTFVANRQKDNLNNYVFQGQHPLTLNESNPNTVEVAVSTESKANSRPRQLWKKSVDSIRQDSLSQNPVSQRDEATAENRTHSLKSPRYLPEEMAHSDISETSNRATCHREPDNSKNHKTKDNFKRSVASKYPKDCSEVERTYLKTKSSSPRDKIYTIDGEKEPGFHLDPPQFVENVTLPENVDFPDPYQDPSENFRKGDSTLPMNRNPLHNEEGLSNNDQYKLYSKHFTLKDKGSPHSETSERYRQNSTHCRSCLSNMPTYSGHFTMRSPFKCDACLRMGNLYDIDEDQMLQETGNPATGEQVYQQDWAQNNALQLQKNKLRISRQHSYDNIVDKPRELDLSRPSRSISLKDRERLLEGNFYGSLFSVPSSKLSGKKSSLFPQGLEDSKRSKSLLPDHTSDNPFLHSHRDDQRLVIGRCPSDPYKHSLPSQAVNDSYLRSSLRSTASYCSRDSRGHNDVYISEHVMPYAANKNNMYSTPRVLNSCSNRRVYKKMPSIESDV

| GluN2A PCA IWB Ephys % potentiation at 3 μM | Structure (SMILES) | activation at 3 µM |
| --- | --- | --- |
| C (“C” indicates potentiation of >150%) | C[C@H](CC[C@H](O)C1CCOCC1)[C@H]1CC[C@H]2[C@@H]3CC=C4C[C@@](C)(O)CC[C@]4(C)[C@H]3CC[C@]12C [Compound 44-A] |  |
|  | CC[C@]1(O)CC[C@@]2(C)C(=CC[C@H]3[C@@H]4CC[C@H]([C@H](C)CC[C@H](O)C(C)C)[C@@]4(C)CC[C@@H]32)C1 [Compound 10] | > 150% |
|  | CC[C@]1(O)CC[C@@]2(C)[C@@H](CC[C@@H]3[C@@H]2CC[C@]2(C)[C@@H]([C@H](C)CC[C@H](O)C(C)C)CC[C@@H]32)C1 [Compound 13] | > 150% |
| C (“C” indicates potentiation of >150%) | C[C@H](CC[C@H](O)C1CC1)[C@H]1CC[C@H]2[C@@H]3CC=C4C[C@@](C)(O)CC[C@]4(C)[C@H]3CC[C@]12C [Compound 28] |  |
|  | C[C@H](CC[C@H](O)CC(F)(F)F)[C@H]1CC[C@H]2[C@@H]3CC[C@H]4C[C@@](C)(O)CC[C@]4(C)[C@H]3CC[C@]12C [Compound 47] | > 150% |
|  | CC[C@H](O)CC[C@@H](C)[C@H]1CC[C@H]2[C@@H]3CC[C@H]4C[C@@](C)(O)CC[C@]4(C)[C@H]3CC[C@]12C [Compound 9] | 75 to 150% |
|  | CC[C@]1(O)CC[C@@]2(C)C(=CC[C@H]3[C@@H]4CC[C@H]([C@H](C)CC[C@@H](O)CC(F)(F)F)[C@@]4(C)CC[C@@H]32)C1 [Compound 54] | > 150% |
|  | CC[C@H](O)CC[C@@H](C)[C@H]1CC[C@H]2[C@@H]3CC=C4C[C@](O)(CC)CC[C@]4(C)[C@H]3CC[C@]12C [Compound 23] | > 150% |
|  | CC(C)[C@H](O)CC[C@@H](C)[C@H]1CC[C@H]2[C@@H]3CC=C4C[C@@](C)(O)CC[C@]4(C)[C@H]3CC[C@]12C [Compound 19] | > 150% |
|  | C[C@H](CC[C@H](O)CC(F)(F)F)[C@H]1CC[C@H]2[C@@H]3CC=C4C[C@@](C)(O)CC[C@]4(C)[C@H]3CC[C@]12C [Compound 45] | > 150% |
|  | CC[C@]1(O)CC[C@@]2(C)[C@@H](CC[C@@H]3[C@@H]2CC[C@]2(C)[C@@H]([C@H](C)CCC(C)O)CC[C@@H]32)C1 (stereo partly shown) [Compound 33] | 10 to 75% |
|  | CC[C@]1(O)CC[C@@]2(C)[C@@H](CC[C@@H]3[C@@H]2CC[C@]2(C)[C@@H]([C@H](C)CC[C@@H](O)C4CC4)CC[C@@H]32)C1 [Compound 40] | > 150% |
|  | C[C@H](CCC(O)C1CC1)[C@H]1CC[C@H]2[C@@H]3CC[C@H]4C[C@@](C)(O)CC[C@]4(C)[C@H]3CC[C@]12C (stereo partly shown) [Compound 30] | > 150% |
|  | C[C@H](CC[C@@H](O)C1CCC1)[C@H]1CC[C@H]2[C@@H]3CC=C4C[C@@](C)(O)CC[C@]4(C)[C@H]3CC[C@]12C [Compound 41-B] | > 150% |
|  | CC[C@@H](O)CC[C@@H](C)[C@H]1CC[C@H]2[C@@H]3CC[C@H]4C[C@](O)(CC)CC[C@]4(C)[C@H]3CC[C@]12C [Compound 35] | 75 to 150% |
|  | CC[C@]1(O)CC[C@@]2(C)C(=CC[C@H]3[C@@H]4CC[C@H]([C@H](C)CCC(O)CC(F)(F)F)[C@@]4(C)CC[C@@H]32)C1 (stereo partly shown) [Compound 52] | > 150% |
|  | C[C@H](CC[C@@H](O)CC(F)(F)F)[C@H]1CC[C@H]2[C@@H]3CC[C@H]4C[C@@](C)(O)CC[C@]4(C)[C@H]3CC[C@]12C [Compound 48] | > 150% |
| C (“C” indicates potentiation of >150%) | CC[C@]1(O)CC[C@@]2(C)C(=CC[C@H]3[C@@H]4CC[C@H]([C@H](C)CC[C@@H](O)C5CC5)[C@@]4(C)CC[C@@H]32)C1 [Compound 26] |  |
|  | CCC(O)CC[C@@H](C)[C@H]1CC[C@H]2[C@@H]3CC[C@H]4C[C@](O)(CC)CC[C@]4(C)[C@H]3CC[C@]12C (stereo partly shown) [Compound 34] | > 150% |
|  | CC[C@]1(O)CC[C@@]2(C)[C@@H](CC[C@@H]3[C@@H]2CC[C@]2(C)[C@@H]([C@H](C)CC[C@H](O)C4CC4)CC[C@@H]32)C1 [Compound 39] | 10 to 75% |
| C (“C” indicates potentiation of >150%) | C[C@H](CC[C@H](O)C1CCC1)[C@H]1CC[C@H]2[C@@H]3CC=C4C[C@@](C)(O)CC[C@]4(C)[C@H]3CC[C@]12C [Compound 41-A] |  |
|  | CC[C@]1(O)CC[C@@]2(C)C(=CC[C@H]3[C@@H]4CC[C@H]([C@H](C)CC[C@@H](O)C(C)C)[C@@]4(C)CC[C@@H]32)C1 [Compound 11] | > 150% |
| C (“C” indicates potentiation of >150%) | CC[C@]1(O)CC[C@@]2(C)C(=CC[C@H]3[C@@H]4CC[C@H]([C@H](C)CC[C@H](O)CC(F)(F)F)[C@@]4(C)CC[C@@H]32)C1 [Compound 53] |  |
| C (“C” indicates potentiation of >150%) | C[C@H](CC[C@@H](O)C1CC1)[C@H]1CC[C@H]2[C@@H]3CC[C@H]4C[C@@](C)(O)CC[C@]4(C)[C@H]3CC[C@]12C [Compound 32] |  |
|  | CC[C@H](O)CC[C@@H](C)[C@H]1CC[C@H]2[C@@H]3CC[C@H]4C[C@](O)(CC)CC[C@]4(C)[C@H]3CC[C@]12C [Compound 36] | > 150% |
|  | C[C@H](CC[C@@H](O)CC(F)(F)F)[C@H]1CC[C@H]2[C@@H]3CC=C4C[C@@](C)(O)CC[C@]4(C)[C@H]3CC[C@]12C [Compound 46] | > 150% |
|  | CC[C@]1(O)CC[C@@]2(C)[C@@H](CC[C@@H]3[C@@H]2CC[C@]2(C)[C@@H]([C@H](C)CCC(O)C4CC4)CC[C@@H]32)C1 (stereo partly shown) [Compound 38] | > 150% |
| C (“C” indicates potentiation of >150%) | CC[C@]1(O)CC[C@@]2(C)[C@@H](CC[C@@H]3[C@@H]2CC[C@]2(C)[C@@H]([C@H](C)CC[C@@H](O)C(C)C)CC[C@@H]32)C1 [Compound 15] |  |
|  | C[C@H](CCC(O)C1CCOCC1)[C@H]1CC[C@H]2[C@@H]3CC=C4C[C@@](C)(O)CC[C@]4(C)[C@H]3CC[C@]12C (stereo partly shown) [Compound 44] | > 150% |

| Structure (SMILES) | GluN2A PCA IWB Ephys % potentiation at 3 μM | activation at 3 µM |
| --- | --- | --- |
| C[C@H](CC[C@@H](O)C1CC1)[C@H]1CC[C@H]2[C@@H]3CC=C4C[C@@](C)(O)CC[C@]4(C)[C@H]3CC[C@]12C [Compound 29] | B (“B” indicates potentiation of >75% to 150%) |  |
| CC[C@]1(O)CC[C@@]2(C)C(=CC[C@H]3[C@@H]4CC[C@H]([C@H](C)CC[C@H](O)C5CC5)[C@@]4(C)CC[C@@H]32)C1 (single isomer, unassigned) [Compound 25] | C (“C” indicates potentiation of >150%) |  |
